Data reported in article PMC12951562, “SH2scan: Mapping SH2 Domain-Ligand Binding Selectivity for Inhibitors and Degraders” (Journal of Medicinal Chemistry, 2026).
Like-named read-outs stand apart in the source and are kept apart here. Non-standard residues stand in square brackets, D forms with d. Residues, ends and D or L forms follow the SMILES beside them. *: point of attachment. pY = N[C@@H](Cc1ccc(OP(=O)(O)O)cc1)C(=O)O; Caffeoyl = O=C(/C=C/c1ccc(O)c(O)c1)*

Legend:
Test in all cases: biochemical
Format in all cases: binding
[1] = target: T1, ABL1 (Homo sapiens, UniProt P00519); settings: for remaining activity at 10 µM: primary screen; for KD: dose-response
T1 construct: the DNA-tagged SH2 domain concentrations used in this study were <0.1 nM; made in house; host or cells: HEK293 (transient transfection; unpurified extract)
T1 sequence (P00519 127-217 limits assumed): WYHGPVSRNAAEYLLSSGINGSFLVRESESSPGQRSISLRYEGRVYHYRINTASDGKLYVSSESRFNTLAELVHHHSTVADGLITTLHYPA

[2] = target: T2, FGR (Homo sapiens, UniProt P09769); settings: for remaining activity at 10 µM: read-out: percent of DMSO vehicle control
T2 construct: the DNA-tagged SH2 domain concentrations used in this study were <0.1 nM; made in house; host or cells: HEK293 (transient transfection; unpurified extract)
T2 sequence (P09769 144-241 limits assumed): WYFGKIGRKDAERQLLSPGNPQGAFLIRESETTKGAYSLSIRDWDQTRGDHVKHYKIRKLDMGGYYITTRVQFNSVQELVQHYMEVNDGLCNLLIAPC

[3] = target: T3, GADS (Homo sapiens, UniProt O75791); settings: for remaining activity at 10 µM: primary screen
T3 construct: the DNA-tagged SH2 domain concentrations used in this study were <0.1 nM; made in house; host or cells: HEK293 (transient transfection; unpurified extract)
T3 sequence (O75791 58-149 limits assumed): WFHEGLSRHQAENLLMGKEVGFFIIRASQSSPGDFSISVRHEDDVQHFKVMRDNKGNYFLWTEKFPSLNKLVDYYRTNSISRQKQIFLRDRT

[4] = target: T4, GRB14 (Homo sapiens, UniProt Q14449); settings: for remaining activity at 10 µM: read-out: percent of DMSO vehicle control
T4 construct: the DNA-tagged SH2 domain concentrations used in this study were <0.1 nM; made in house; host or cells: HEK293 (transient transfection; unpurified extract)
T4 sequence (Q14449 439-535 limits assumed): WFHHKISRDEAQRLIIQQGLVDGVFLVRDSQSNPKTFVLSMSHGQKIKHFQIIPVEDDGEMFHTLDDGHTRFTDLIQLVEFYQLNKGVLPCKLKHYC

[5] = target: T5, LNK (SH2B3) (Homo sapiens, UniProt Q9UQQ2); settings: for remaining activity at 10 µM: read-out: percent of DMSO vehicle control
T5 construct: the DNA-tagged SH2 domain concentrations used in this study were <0.1 nM; made in house; host or cells: HEK293 (transient transfection, unpurified extract)
T5 sequence (Q9UQQ2 364-462 limits assumed): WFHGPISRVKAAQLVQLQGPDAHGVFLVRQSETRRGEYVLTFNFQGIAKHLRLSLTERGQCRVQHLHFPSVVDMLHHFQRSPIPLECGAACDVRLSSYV

[6] = target: T6, LYN (Homo sapiens, UniProt P07948); settings: for remaining activity at 10 µM: read-out: percent of DMSO vehicle control
T6 construct: the DNA-tagged SH2 domain concentrations used in this study were <0.1 nM; made in house; host or cells: HEK293 (transient transfection, unpurified extract)
T6 sequence (P07948 129-226 limits assumed): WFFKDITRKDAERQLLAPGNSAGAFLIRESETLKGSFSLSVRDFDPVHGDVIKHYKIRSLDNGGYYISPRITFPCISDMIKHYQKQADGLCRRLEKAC

[7] = target: T7, MATK (Homo sapiens, UniProt P42679); settings: for remaining activity at 10 µM: primary screen
T7 construct: the DNA-tagged SH2 domain concentrations used in this study were <0.1 nM; made in house; host or cells: HEK293 (transient transfection, unpurified extract)
T7 sequence (P42679 122-211 limits assumed): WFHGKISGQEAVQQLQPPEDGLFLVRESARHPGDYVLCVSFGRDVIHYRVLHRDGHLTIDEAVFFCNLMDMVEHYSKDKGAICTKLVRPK

[8] = target: T8, SH2B (SH2B1) (Homo sapiens, UniProt Q9NRF2); settings: for remaining activity at 10 µM: read-out: percent of DMSO vehicle control
T8 construct: made in house; host or cells: HEK293 (transient transfection), unpurified extract

[9] = target: T9, SH2D1B (Homo sapiens, UniProt O14796); settings: for remaining activity at 10 µM: read-out: percent of DMSO vehicle control
T9 construct: made in house; host or cells: HEK293 (transient transfection), unpurified extract
T9 sequence (O14796 1-132): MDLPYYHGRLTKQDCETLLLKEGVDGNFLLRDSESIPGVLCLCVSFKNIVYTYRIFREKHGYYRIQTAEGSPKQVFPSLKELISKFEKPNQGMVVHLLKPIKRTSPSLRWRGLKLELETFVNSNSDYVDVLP

[10] = target: T10, SHB (Homo sapiens, UniProt Q15464); settings: for remaining activity at 10 µM: read-out: percent of DMSO vehicle control
T10 construct: made in house; host or cells: HEK293 (transient transfection), unpurified extract
T10 sequence (Q15464 whole entry): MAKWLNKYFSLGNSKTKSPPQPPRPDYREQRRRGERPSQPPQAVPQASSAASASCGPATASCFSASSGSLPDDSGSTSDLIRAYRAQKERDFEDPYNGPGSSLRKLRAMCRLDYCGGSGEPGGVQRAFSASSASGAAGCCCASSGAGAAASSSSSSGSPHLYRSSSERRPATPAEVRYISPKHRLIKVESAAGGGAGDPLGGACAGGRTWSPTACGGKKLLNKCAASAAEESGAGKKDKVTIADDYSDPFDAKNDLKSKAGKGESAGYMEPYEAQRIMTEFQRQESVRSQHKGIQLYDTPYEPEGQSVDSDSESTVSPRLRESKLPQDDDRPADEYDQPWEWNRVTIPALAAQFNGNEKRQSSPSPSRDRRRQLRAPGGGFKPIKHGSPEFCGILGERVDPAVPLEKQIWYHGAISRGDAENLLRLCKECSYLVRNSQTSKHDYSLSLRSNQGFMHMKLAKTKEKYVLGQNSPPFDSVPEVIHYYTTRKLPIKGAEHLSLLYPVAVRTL

[11] = target: T11, STAT1 (Homo sapiens, UniProt P42224); settings: for remaining activity at 10 µM: read-out: percent of DMSO vehicle control; for Kd: read-out: KD
T11 construct: made in house; host or cells: HEK293 (transient transfection), unpurified extract
T11 sequence (P42224 1-750): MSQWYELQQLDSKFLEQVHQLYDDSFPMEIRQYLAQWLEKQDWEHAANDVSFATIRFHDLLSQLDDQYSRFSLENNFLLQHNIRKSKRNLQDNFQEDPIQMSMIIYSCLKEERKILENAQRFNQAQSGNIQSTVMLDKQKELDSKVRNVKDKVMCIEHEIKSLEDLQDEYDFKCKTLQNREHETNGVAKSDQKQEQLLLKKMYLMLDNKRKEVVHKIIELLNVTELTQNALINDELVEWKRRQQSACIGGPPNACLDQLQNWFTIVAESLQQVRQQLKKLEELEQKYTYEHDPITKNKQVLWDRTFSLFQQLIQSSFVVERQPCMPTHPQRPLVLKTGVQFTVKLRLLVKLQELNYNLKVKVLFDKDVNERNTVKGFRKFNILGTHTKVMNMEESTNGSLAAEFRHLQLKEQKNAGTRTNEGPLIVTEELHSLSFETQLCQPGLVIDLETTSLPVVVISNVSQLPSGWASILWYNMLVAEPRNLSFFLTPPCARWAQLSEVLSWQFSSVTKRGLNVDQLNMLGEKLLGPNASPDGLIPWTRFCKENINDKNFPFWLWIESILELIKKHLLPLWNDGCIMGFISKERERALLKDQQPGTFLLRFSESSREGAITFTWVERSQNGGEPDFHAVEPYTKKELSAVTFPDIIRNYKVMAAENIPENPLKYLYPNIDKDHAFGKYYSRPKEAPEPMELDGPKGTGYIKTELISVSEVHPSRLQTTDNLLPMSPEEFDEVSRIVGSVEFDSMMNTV

[12] = target: T12, VAV1 (Homo sapiens, UniProt P15498); settings: for remaining activity at 10 µM: primary screen
T12 construct: made in house; host or cells: HEK293 (transient transfection), unpurified extract
T12 sequence (P15498 1-845): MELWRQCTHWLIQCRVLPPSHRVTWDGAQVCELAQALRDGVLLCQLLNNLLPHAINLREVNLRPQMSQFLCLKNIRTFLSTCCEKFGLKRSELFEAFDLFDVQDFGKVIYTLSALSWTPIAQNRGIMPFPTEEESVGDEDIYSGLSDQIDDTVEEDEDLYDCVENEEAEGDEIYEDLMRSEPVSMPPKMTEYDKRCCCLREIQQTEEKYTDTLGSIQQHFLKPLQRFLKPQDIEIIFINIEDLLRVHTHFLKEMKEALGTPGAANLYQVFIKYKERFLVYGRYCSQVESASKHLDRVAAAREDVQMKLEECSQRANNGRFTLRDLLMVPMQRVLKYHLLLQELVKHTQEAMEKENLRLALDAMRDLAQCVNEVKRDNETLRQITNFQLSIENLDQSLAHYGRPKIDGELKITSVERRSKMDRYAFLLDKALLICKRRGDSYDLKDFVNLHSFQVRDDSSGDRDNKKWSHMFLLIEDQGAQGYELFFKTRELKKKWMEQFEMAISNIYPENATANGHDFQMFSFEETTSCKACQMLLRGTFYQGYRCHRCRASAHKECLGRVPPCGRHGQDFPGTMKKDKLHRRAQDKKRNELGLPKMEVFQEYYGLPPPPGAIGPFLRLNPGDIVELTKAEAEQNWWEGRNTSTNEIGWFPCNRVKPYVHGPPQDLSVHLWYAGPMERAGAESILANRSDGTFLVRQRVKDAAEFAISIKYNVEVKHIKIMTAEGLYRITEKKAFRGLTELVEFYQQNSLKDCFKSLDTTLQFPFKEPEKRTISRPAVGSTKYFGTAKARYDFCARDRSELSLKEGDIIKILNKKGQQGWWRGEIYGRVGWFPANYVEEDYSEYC

[13] = read-out: percent of DMSO vehicle control

O=C(CCl)Nc1cccc(CNC(=O)[C@H](Cc2ccc(OP(=O)(O)O)cc2)NC(=O)Cc2ccc(F)cc2)c1 [MN551]
remaining activity at 10 µM [1, 13]: 35.7 ± 4.3% | remaining activity at 10 µM ([2]; primary screen, 10 μM): 49.8% | remaining activity at 10 µM [3, 13]: 42.9 ± 0.8% | remaining activity at 10 µM ([4]; primary screen, 10 μM): 62.1 ± 2.4% | Kd ([5]; dose-response, read-out: KD): 3900 ± 710 nM | remaining activity at 10 µM ([5]; primary screen, 10 μM): 17.7 ± 5.5% | remaining activity at 10 µM ([6]; primary screen, 10 μM): 161% | remaining activity at 10 µM [7, 13]: 60.4 ± 2.8% | remaining activity at 10 µM ([8]; primary screen, 10 μM): 105% | remaining activity at 10 µM ([9]; primary screen, 10 μM): 63.2 ± 6.6% | remaining activity at 10 µM ([10]; primary screen, 10 μM): 102% | remaining activity at 10 µM ([11]; primary screen, 10 μM): 49.8 ± 4.1% | remaining activity at 10 µM [12, 13]: 109%

CC[C@H](C)[C@H](NC(=O)[C@H](CCC(=O)O)NC(=O)[C@H](CCC(=O)O)NC(=O)[C@H](Cc1ccc(OP(=O)(O)O)cc1)NC(=O)/C=C/c1ccc(O)c(O)c1)C(=O)N[C@@H](CCC(=O)O)C(=O)O [Caffeic acid-pYEEIE] (Caffeoyl-[pY]EEIE-OH)
Kd [1]: 105 ± 17 nM | percent of DMSO control binding at 10 µM [1, 13]: 0% | Kd [2]: 2.7 ± 5.3 nM | remaining activity at 10 µM [2]: 0% | percent of DMSO vehicle control at 10 µM [3, 13]: 94.8% | Kd [4]: 1200 ± 920 nM | remaining activity at 10 µM [4]: 0% | Kd [5]: 500 ± 410 nM | remaining activity at 10 µM [5]: 0.4 ± 0.1% | Kd [6]: 1 ± 0.34 nM | remaining activity at 10 µM [6]: 0% | percent of DMSO vehicle control at 10 µM [7, 13]: 83.8 ± 3.5% | Kd [8]: 910 ± 310 nM | remaining activity at 10 µM [8]: 2.3 ± 0.4% | Kd [9]: 65 ± 14 nM | remaining activity at 10 µM [9]: 12.9 ± 2.3% | Kd [10]: 1200 ± 530 nM | remaining activity at 10 µM [10]: 1.8 ± 0.1% | KD ([11]; dose-response): No Hit | remaining activity at 10 µM [11]: 27.1 ± 21.3% | Kd [12]: 840 ± 530 nM | percent of DMSO vehicle control at 10 µM [12, 13]: 1.6 ± 0.6%

C/C(=C\C(=O)N[C@H](C(=O)N1CCC[C@H]1C(=O)N(c1ccccc1)c1ccc(I)cc1)C(C)(C)C)c1ccc(OP(=O)(O)O)cc1 [STAT6-IN-1]
KD [1]: No Hit | remaining activity at 10 µM [1, 13]: 0% | Kd ([2]; dose-response, read-out: KD): 2300 ± 550 nM | remaining activity at 10 µM ([2]; primary screen, 10 μM): 20.7 ± 23.8% | Kd ([3]; dose-response, read-out: KD): 2400 nM | remaining activity at 10 µM [3, 13]: 9.6 ± 0.1% | Kd ([4]; dose-response, read-out: KD): 3500 ± 420 nM | remaining activity at 10 µM ([4]; primary screen, 10 μM): 24.5 ± 4% | Kd ([5]; dose-response, read-out: KD): 2300 ± 140 nM | remaining activity at 10 µM ([5]; primary screen, 10 μM): 6.9 ± 3.8% | remaining activity at 10 µM ([6]; primary screen, 10 μM): 73.6 ± 54% | Kd ([7]; dose-response, read-out: KD): 3000 ± 490 nM | remaining activity at 10 µM [7, 13]: 6.5 ± 1.8% | remaining activity at 10 µM ([8]; primary screen, 10 μM): 22.6 ± 6.8% | remaining activity at 10 µM ([9]; primary screen, 10 μM): 49.6 ± 1.2% | KD ([10]; dose-response): No Hit | remaining activity at 10 µM ([10]; primary screen, 10 μM): 28.7 ± 0.4% | Kd ([11]; dose-response): 330 ± 73 nM | remaining activity at 10 µM ([11]; primary screen, 10 μM): 0% | remaining activity at 10 µM [12, 13]: 55.3 ± 2.6%

O=C(COc1ccc2cc(C(=O)Nc3ccccc3)ccc2c1)NCc1ccc(OP(=O)(O)O)c(OP(=O)(O)O)c1 [Stafib-1]
KD [1]: No Hit | remaining activity at 10 µM [1, 13]: 19.9% | KD ([2]; dose-response): No Hit | remaining activity at 10 µM ([2]; primary screen, 10 μM): 34.3% | remaining activity at 10 µM [3, 13]: 51.9 ± 12.6% | remaining activity at 10 µM ([4]; primary screen, 10 μM): 55.1 ± 11.6% | remaining activity at 10 µM ([5]; primary screen, 10 μM): 94.8 ± 14.4% | remaining activity at 10 µM ([6]; primary screen, 10 μM): 95.6 ± 22.4% | remaining activity at 10 µM [7, 13]: 59.9 ± 60.2% | remaining activity at 10 µM ([8]; primary screen, 10 μM): 92.7 ± 14.3% | remaining activity at 10 µM ([9]; primary screen, 10 μM): 62.9 ± 9.5% | remaining activity at 10 µM ([10]; primary screen, 10 μM): 114% | Kd ([11]; dose-response): 37000 nM | remaining activity at 10 µM ([11]; primary screen, 10 μM): 48.2 ± 5.4% | remaining activity at 10 µM [12, 13]: 106%
